For assay [1], the target named is T1, CETP (Homo sapiens, UniProt P11597).
T1 construct: from tissue; host or cells: human plasma from healthy men
T1 sequence (P11597 18-493): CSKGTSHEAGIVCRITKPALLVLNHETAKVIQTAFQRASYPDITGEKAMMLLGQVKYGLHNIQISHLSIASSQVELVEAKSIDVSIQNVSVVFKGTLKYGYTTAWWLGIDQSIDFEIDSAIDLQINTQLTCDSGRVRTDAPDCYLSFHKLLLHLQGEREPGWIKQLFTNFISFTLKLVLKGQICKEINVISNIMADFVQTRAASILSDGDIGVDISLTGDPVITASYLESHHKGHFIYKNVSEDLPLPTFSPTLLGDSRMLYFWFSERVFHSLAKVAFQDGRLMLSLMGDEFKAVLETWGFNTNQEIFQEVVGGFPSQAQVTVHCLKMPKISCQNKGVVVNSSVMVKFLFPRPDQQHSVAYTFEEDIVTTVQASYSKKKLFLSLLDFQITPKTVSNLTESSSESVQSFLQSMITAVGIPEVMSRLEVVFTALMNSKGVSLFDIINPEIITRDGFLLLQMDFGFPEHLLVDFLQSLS
The assay can be described thus: Inhibitory activity against CETP in human plasma (Roar CETP activity kit, fluorescence). Particulars: plasma from healthy men diluted 1:10 in assay buffer, 37° C., 3 hrs, fluorescence 465/535 nm; read-out: IC50, Inhibition of CETP Activity in Human Plasma. In kind it is biochemical. Put shortly: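 Healthy male human plasma, diluted 1:10, incubated 3 hrs at 37° C with donor/acceptor fluorescent substrates and compound (0.01–10000 nM, DMSO). Fluorescence at ex 465/em 535 nm, background-corrected against no-plasma and no-compound wells; IC50 from sigmoidal fit.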

Assay [2] deals with CETP. The assay can be described thus: Effect on CETP activity in hamster administered with single dose. In kind it is in vivo, Golden Syrian hamsters. Particulars: hamsters, single oral dose 100 mg/kg, blood 0.5-24 hrs after administration, compared to pre-treatment. Here is the method:
Each of the compounds of the Examples was orally administered at a dose of 100 mg/kg to three 7-week-old male Golden Syrian hamsters per group. Blood samples were taken from the retro-orbital plexus before administration and 0.5, 1, 2, 4, 6, 8, and 24 hrs after administration, and measured for blood CETP activity using a Roar CETP activity assay kit (Cat#: RB-CETP, Roar Biomedical Inc.).

As for `CCN(c1ncc(-c2cccn2C)cc1CN1C(=O)O[C@H](c2cc(C(F)(F)F)cc(C(F)(F)F)c2)[C@@H]1C)C1CCOCC1` [Example 50, (4S,5R)-5-[3,5-bis(trifluoromethyl)phenyl]-4-methyl-3-({[2-(ethyl)(tetrahydro-2H-pyran-4-yl)amino]-5-(1-methyl-1H-pyrrol-2-yl)pyridin-3-yl}methyl)-oxazolidin-2-one], the IC50 in assay [1] turned out to be 11.1 nM. In addition, in assay [2], the “Relative Maximal Inhibition of CETP Activity to Pre-Administration (%)” value (shortened to “Relative Maximal Inhibition … (%)”) is listed as 57%.
In the case of `CCN(c1ncc(-c2cccn2C)cc1CN1C(=O)O[C@H](c2cc(C(F)(F)F)cc(C(F)(F)F)c2)[C@@H]1C)C1CCCCC1` [Example 56, (4S,5R)-5-[3,5-bis(trifluoromethyl)phenyl]-4-methyl-3-({[2-(ethyl)(cyclohexyl-4-yl)amino]-5-(1-methyl-1H-pyrrol-2-yl)pyridin-3-yl}methyl) oxazolidin-2-one], in assay [1], the half-inhibitory concentration (IC50) came to 10.9 nM. Also, the “Relative Maximal Inhibition … (%)” value in assay [2] turned out to be 49%.
As to `CCN(c1ncc(-c2ccsc2)cc1CN1C(=O)O[C@H](c2cc(C(F)(F)F)cc(C(F)(F)F)c2)[C@@H]1C)C1CCCCC1` [Example 77, (4S,5R)-5-[3,5-bis(trifluoromethyl)phenyl]-4-methyl-3-({[2-(ethyl)(cyclohexyl)amino]-5-(thiophen-3-yl)pyridin-3-yl}methyl)-oxazolidin-2-one], the IC50 in assay [1] worked out at 2.1 nM. For the same compound, in assay [2], the “Relative Maximal Inhibition … (%)” value is 50%.
Consider `CCN(c1ncc(-c2csnc2C)cc1CN1C(=O)O[C@H](c2cc(C(F)(F)F)cc(C(F)(F)F)c2)[C@@H]1C)C1CCCCC1` [Example 87, (4S,5R)-5-[3,5-bis(trifluoromethyl)phenyl]-4-methyl-3-({[2-(ethyl)(cyclohexyl)amino]-5-(3-methyl-isothioxazol-4-yl)pyridin-3-yl}methyl)-oxazolidin-2-one], for which the IC50 in assay [1] was 5.6 nM. For the same compound, the “Relative Maximal Inhibition … (%)” value in assay [2] was 59%.
For `CCN(c1ncc(N2CCCC2)cc1CN1C(=O)O[C@H](c2cc(C(F)(F)F)cc(C(F)(F)F)c2)[C@@H]1C)C1CCCCC1` [Example 88, (4S,5R)-5-[3,5-bis(trifluoromethyl)phenyl]-4-methyl-3-({[2-(ethyl)(cyclohexyl)amino]-5-(pyrrolidin-1-yl)pyridin-3-yl}methyl)-oxazolidin-2-one], the concentration for half-maximal inhibition (IC50) in assay [1] amounted to 10.7 nM. The “Relative Maximal Inhibition … (%)” value in assay [2] was found to be 45%.
The matching figures for `CCN(c1ncc(N2CCCC2C)cc1CN1C(=O)O[C@H](c2cc(C(F)(F)F)cc(C(F)(F)F)c2)[C@@H]1C)C1CCCCC1` (stereo partly drawn) [Example 89, (4S,5R)-5-[3,5-bis(trifluoromethyl)phenyl]-4-methyl-3-({[2-(ethyl)(cyclohexyl)amino]-5-(2-methyl-pyrrolidin-1-yl)pyridin-3-yl}methyl)-oxazolidin-2-one]: 7 nM and 53%.
The like results for `CCN(CC1CCC(CC(=O)O)CC1)c1ncc(-c2ccsc2)nc1CN1C(=O)OC(c2cc(C(F)(F)F)cc(C(F)(F)F)c2)C1C` [Example 105, trans-4-({[3-({(4S,5S)-5-[3,5-bis(trifluoromethyl)phenyl]-4-methyl-2-oxazolidin-3-yl}methyl)-5-(thiophen-3-yl)pyrazin-2-yl]{[N-(ethyl)aminomethyl]cyclohexyl)}acetic acid] were, in that order, 0.8 nM and 72%.
Take `CCN(C[C@H]1CC[C@H](CC(=O)O)CC1)c1ncc(-c2cccs2)nc1CN1C(=O)OC(c2cc(C(F)(F)F)cc(C(F)(F)F)c2)[C@@H]1C` (stereo partly shown) [Example 114]: the IC50 in assay [1] turned out to be 10.3 nM.
On the same count and under the same terms, next, `CCN(C[C@H]1CC[C@H](CC(=O)O)CC1)c1ncc(-c2ccccc2)nc1CN1C(=O)OC(c2cc(C(F)(F)F)cc(C(F)(F)F)c2)[C@@H]1C` (stereo partly shown) [Example 116]: 6.29 nM.
As for `CCN(C[C@H]1CC[C@H](CC(=O)O)CC1)c1ncc(-c2ccc(C#N)cc2)nc1CN1C(=O)OC(c2cc(C(F)(F)F)cc(C(F)(F)F)c2)[C@@H]1C` (stereo partly shown) [Example 117], the IC50 in assay [1] turned out to be 11.7 nM.
With `CCN(C[C@H]1CC[C@H](CC(=O)O)CC1)c1ncc(-c2cccnc2)nc1CN1C(=O)OC(c2cc(C(F)(F)F)cc(C(F)(F)F)c2)[C@@H]1C` (stereo partly shown) [Example 119], the IC50 in assay [1] worked out at 78.2 nM.
As to `CCN(C[C@H]1CC[C@H](CC(=O)O)CC1)c1ncc(-c2cncc(F)c2)nc1CN1C(=O)OC(c2cc(C(F)(F)F)cc(C(F)(F)F)c2)[C@@H]1C` (stereo partly shown) [Example 120], the IC50 in assay [1] stood at 24.8 nM.
With `CCN(C[C@H]1CC[C@H](CC(=O)O)CC1)c1ncc(C2CC2)nc1CN1C(=O)OC(c2cc(C(F)(F)F)cc(C(F)(F)F)c2)[C@@H]1C` (stereo partly shown) [Example 121], the concentration for half-maximal inhibition (IC50) in assay [1] stood at 3.88 nM.
For the compound `CCN(C[C@H]1CC[C@H](CC(=O)O)CC1)c1ncc(C2CCC2)nc1CN1C(=O)OC(c2cc(C(F)(F)F)cc(C(F)(F)F)c2)[C@@H]1C` (stereo partly shown) [Example 122], the IC50 in assay [1] is 4.68 nM.
On the same count and under the same terms, then `CCCN(C[C@H]1CC[C@H](CC(=O)O)CC1)c1ncc(-c2c(C)noc2C)nc1CN1C(=O)OC(c2cc(C(F)(F)F)cc(C(F)(F)F)c2)[C@@H]1C` (stereo partly shown) [Example 123], with 7.19 nM.
Turning to `CCCN(C[C@H]1CC[C@H](CC(=O)O)CC1)c1ncc(N2CCCC2)nc1CN1C(=O)OC(c2cc(C(F)(F)F)cc(C(F)(F)F)c2)[C@@H]1C` (stereo partly shown) [Example 124], in assay [1], the IC50 turned out to be 7.13 nM. In addition, in assay [2], the “Relative Maximal Inhibition … (%)” value came to 52%.
For the compound `Cc1noc(C)c1-c1cnc(N(C)C[C@H]2CC[C@H](CC(=O)O)CC2)c(CN2C(=O)OC(c3cc(C(F)(F)F)cc(C(F)(F)F)c3)[C@@H]2C)n1` (stereo partly shown) [Example 126], the IC50 in assay [1] came out at 17 nM.
Regarding `C[C@H]1C(c2cc(C(F)(F)F)cc(C(F)(F)F)c2)OC(=O)N1Cc1nc(N2CCCC2)cnc1N(C)C[C@H]1CC[C@H](CC(=O)O)CC1` (stereo partly shown) [Example 127], the IC50 in assay [1] amounted to 43 nM.
For the compound `C[C@H]1C(c2cc(C(F)(F)F)cc(C(F)(F)F)c2)OC(=O)N1Cc1nc(C2CCC2)cnc1N(C)C[C@H]1CC[C@H](CC(=O)O)CC1` (stereo partly shown) [Example 128], the IC50 in assay [1] was 23.9 nM.
On to `C[C@H]1C(c2cc(C(F)(F)F)cc(C(F)(F)F)c2)OC(=O)N1Cc1nc(C2CCCC2)cnc1N(C)C[C@H]1CC[C@H](CC(=O)O)CC1` (stereo partly shown) [Example 129], for which the IC50 in assay [1] turned out to be 34 nM.
Same read-out and setting: then `CCN(C[C@H]1CC[C@H](CCO)CC1)c1ncc(-c2c(C)noc2C)nc1CN1C(=O)OC(c2cc(C(F)(F)F)cc(C(F)(F)F)c2)[C@@H]1C` (stereo partly shown) [Example 130], with 8.86 nM.
Regarding `CCN(CC1CCC(CCO)CC1)c1ncc(N2CCCC2)nc1CN1C(=O)OC(c2cc(C(F)(F)F)cc(C(F)(F)F)c2)C1C` [Example 131, trans-4-({[3-({(4S,5S)-5-[3,5-bis(trifluoromethyl)phenyl]-4-methyl-2-oxazolidin-3-yl}methyl)-5-(pyrrolidin-4-yl)pyrazin-2-yl]{[N-(ethyl)aminomethyl]cyclohexyl)}propanol], the IC50 in assay [1] turned out to be 4.98 nM.
Consider “(4S,5R)-5-[3,5-bis(trifluoromethyl)phenyl]-3-({[2-(cyclopropyl)(cyclohexyl)amino]-5-(3,5-dimethyl-isoxazol-4-yl)pyrazin-3-yl}methyl)-4-methyloxazolidin-2-one [Example 97]”, for which the IC50 in assay [1] worked out at 11.6 nM.
Regarding “(4S,5R)-5-[3,5-bis(trifluoromethyl)phenyl]-4-methyl-3-({2-[(3R,4R)-4-ethoxytetrahydrofuran-3-yl)(methyl)amino]-5-(trifluoromethyl)pyridin-3-yl}methyl)-oxazolidin-2-one [Example 3]”, the half-inhibitory concentration (IC50) in assay [1] was 194 nM.
On the same count and under the same terms, then “(4S,5R)-5-[3,5-bis(trifluoromethyl)phenyl]-4-methyl-3-({[2-(ethyl)(cyclohexyl)amino]-5-(1,3-dimethyl-1H-pyrazol-4-yl)pyridin-3-yl}methyl)-oxazolidin-2-one [Example 69]”, with 13.4 nM.
For “(4S,5R)-5-[3,5-bis(trifluoromethyl)phenyl]-4-methyl-3-({[2-(ethyl)(cyclohexyl)amino]-5-(2,4-dimethyl-thiazol-5-yl)pyridin-3-yl}methyl)-oxazolidin-2-one [Example 84]”, the IC50 in assay [1] was found to be 29.7 nM.
Regarding “(4S,5R)-5-[3,5-bis(trifluoromethyl)phenyl]-4-methyl-3-({[2-(ethyl)(cyclohexyl)amino]-5-(3-methoxy-thiophen-2-yl)pyridin-3-yl}methyl)-oxazolidin-2-one [Example 70]”, the IC50 in assay [1] was 9.9 nM.
Turning to “(4S,5R)-5-[3,5-bis(trifluoromethyl)phenyl]-4-methyl-3-({[2-(methyl)(cyclohexyl)amino]-5-(3,5-dimethyl-isoxazol-4-yl)pyrazin-3-yl}methyl)-oxazolidin-2-one [Example 95]”, in assay [1], the IC50 is 3.8 nM.
Take “(4S,5S)-5-[3,5-bis(trifluoromethyl)phenyl]-4-methyl-3-({[2-(methyl)(tetrahydro-2H-pyran-4-yl)amino]-5-(trifluoromethyl)pyridin-3-yl}methyl)-oxazolidin-2-one [Example 6]”: the IC50 in assay [1] amounted to 49 nM.

In general, IC50 refers to the concentration at which inhibition is half-maximal.

(Values after patent US9533977B2, “Oxazolidinone derivative as CETP inhibitor, its preparation method, and pharmaceutical composition comprising the same” (DONG-A ST CO., LTD., priority 2013, dated 2017).)
